doi:10.1101/2024.10.18.618978v3 (biorxiv, 2026)

Tests used:
[1] = molecular target: T1, SpeG (Staphylococcus aureus, UniProt A0A0H2XGJ0); assay: thermal shift assay; format: binding; details: 1.6 μM SpeG, 3-fold dilution series of compound; Tm decreased
T1 sequence (A0A0H2XGJ0 1-165): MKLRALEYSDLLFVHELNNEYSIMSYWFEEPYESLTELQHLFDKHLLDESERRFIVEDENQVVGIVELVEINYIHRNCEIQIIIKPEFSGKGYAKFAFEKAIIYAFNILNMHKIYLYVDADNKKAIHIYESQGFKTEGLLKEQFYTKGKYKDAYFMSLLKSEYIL

[2] = molecular target: SAT1 (Homo sapiens, UniProt P21673); assay: colorimetric DTNB SSAT assay; format: biochemical
SAT1, sequence (P21673 whole entry): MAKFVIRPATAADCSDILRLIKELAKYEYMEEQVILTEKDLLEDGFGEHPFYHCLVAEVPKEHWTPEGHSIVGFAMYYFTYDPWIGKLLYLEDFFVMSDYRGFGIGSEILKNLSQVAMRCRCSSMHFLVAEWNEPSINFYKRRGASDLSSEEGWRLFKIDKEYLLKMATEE

[3] = molecular target: T1, SpeG; assay: colorimetric DTNB SSAT assay; format: biochemical

SMILES | Tm [1] | Ki [2] [µM] | Ki [3] [µM]
CCCCCCCCCCCCNCCCN [OES2-0017] | OES2-0017 titration decreased SpeG Tm |  | 
CCCCCCCCNCCCN [OES2-0045] |  | 228 ± 49.7 | 
CCCCCCCCCCCCN [OES2-0052] |  | 160 ± 50.4 | 160 ± 38.3
CCCCCCCCCCN [OES2-0077] |  | 743 ± 250 | 853 ± 238
CCCCCCCCNCCN [OES2-0085] |  |  | 1270 ± 263
CCCCCCCCCCNCCN [OES2-0086] |  |  | 1200 ± 425
